Laboratory results as given in patent US9895346B2, “Applications of substituent benzyloxy group containing ether compounds for preparing antitumor drugs” (Sinochem Corporation, priority 2013, dated 2018).

Tests used:
[1] = tested on: prostate cancer cell line LNCap; assay: In vitro cell inhibition assay (crystal violet), prostate cancer LNCap; type: cell-based, human
Excerpt: (§1) In vitro Cell inhibition assay is as follows:
(§2) The human cancer cell lines used for this assay were bladder cancer J82, T24, prostate cancer LNCap, PC-3, lung cancer A549, H157, H460, H520, colon cancer HCT8, HCT116, RkO, and leukemia HL-60, etc.
(§3) In vitro cell culture technology was selected for the determination of inhibition rate bladder cancer cell lines J82 and T24, prostate cancer cell lines LNCap and PC-3, lung cancer cell lines A549, H157, H460 and H520. 1000 to 3000 cells were inoculated to 24-well plate, followed by addition of 1 mL culture medium well known to researchers in this field to each well, the cells were cultured in 5% incubator for 24 hours at 37° C., then the different concentration compounds and controls were added to each well. It should be noted that the added volume is not more than 0.5% of total volume. After completion of addition, the cells continued being cultured in incubator for one week, the culture medium was removed and washed by cold PBS of 1 mL once, and then fixed for 10 minutes at room temperature with 1% formalin, followed by wash with PBS of 1 mL. After fixation, stain was carried out with 0.1% crystal violet for 30 minutes. 0.1% crystal violet was recycled. The stained cells were washed gently with deionized water, dried at room temperature and kepted. The inhibition rate was calculated according to the foiling equation. The controls are Selumetinib (AZD6244), Gefitinib, Cisplatin. Inhibition rate=number of left cells each treatment/number of left cells of untreated control×100%

[2] = tested on: lung cancer cell line H157; assay: In vitro cell inhibition assay (crystal violet), lung cancer H157; type: cell-based, human
Excerpt: as §1, §2, §3

[3] = tested on: human leukemia HL-60 cells; assay: Proliferation inhibition of human leukemia HL-60 cells, MTT method; type: cell-based; conditions: 48 h incubation, OPTI-MEM medium
Experimental: The inhibition rate of human leukemia HL-60 cells was evaluated by regular MTT method. The human leukemia HL-60 cells were picked up from cell incubator, after washed for twice using PBS, cells were digested by 0.25% trypsin, and then add medium to terminate the digestion. After cells were collected using centrifuge and re-suspended, counting cells under inverted microscope and adding medium to make a density which was 5×10^4 cells/mL. After 100 μL aliquots were added to each well of 96-well microtiter plates, cells were cultured in 5% incubator for overnight at 37° C., then the different concentration compounds were added to each well. After incubation for 48 h, MTT solution was added to each well and plates were then incubated for 4 h. The MTT tetrazolium was reduced to formazan by living cells. Then the formazan crystals were dissolved though adding DMSO to each well. The absorbance was read at 570 nm with a microplate reader.

[4] = tested on: lung cancer cell line H460; assay: In vitro cell inhibition assay (crystal violet), lung cancer H460; type: cell-based, human
Outline: (§4)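 1000-3000 cells per well grown 24 h at 37 °C, then exposed to compound for one week (vehicle ≤0.5% of volume). Cells formalin-fixed and stained with 0.1% crystal violet. Inhibition rate = remaining cells in treated wells / remaining cells in untreated control × 100%.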

[5] = tested on: lung cancer cell line A549; assay: In vitro cell inhibition assay (crystal violet), lung cancer A549; type: cell-based, human
Outline: as §4

[6] = tested on: bladder cancer cell line J82; assay: In vitro cell inhibition assay (crystal violet), bladder cancer J82; type: cell-based, human
Excerpt: as §1, §2, §3

[7] = tested on: lung cancer cell line H520; assay: In vitro cell inhibition assay (crystal violet), lung cancer H520; type: cell-based, human
Outline: as §4

[8] = tested on: prostate cancer cell line PC-3; assay: In vitro cell inhibition assay (crystal violet), prostate cancer PC-3; type: cell-based, human
Excerpt: as §1, §2, §3

[9] = tested on: bladder cancer cell line T24; assay: In vitro cell inhibition assay (crystal violet), bladder cancer T24; type: cell-based, human
Excerpt: as §1, §2, §3

For jiaxiangjunzhi [Compound 28-5], the “Inhibition rate on human cancer cells” value ([1]; 1.0 μM) was 100%, the “Inhibition rate on human cancer cells” value ([1]; 2.5 μM) was 100% and the “Inhibition rate on human cancer cells” value ([1]; 5.0 μM) was 100%. The “Inhibition rate on human cancer cells” value ([2]; H157, 0.5 μM) was 100%, the “Inhibition rate on human cancer cells” value ([2]; H157, 1.0 μM) was 100% and the “Inhibition rate on human cancer cells” value ([2]; H157, 2.5 μM) was 100%. The “Inhibition rate on human cancer cells” value ([2]; H157, 5.0 μM) was 100%, the “Proliferation inhibitory effect on human leukemia HL-60 cell (%)” value (from here on “Proliferation inhibitory effect … (%)”) ([3]; concentration 1 μM) was 31.7% and the “Proliferation inhibitory effect … (%)” value ([3]; concentration 10 μM) was 59.3%. The “Proliferation inhibitory effect … (%)” value ([3]; concentration 100 μM) was 73.8%, the “Inhibition rate on human cancer cells” value ([4]; H460, 0.5 μM) was 100% and the “Inhibition rate on human cancer cells” value ([4]; H460, 1.0 μM) was 100%. The “Inhibition rate on human cancer cells” value ([4]; H460, 2.5 μM) was 100%, the “Inhibition rate on human cancer cells” value ([4]; H460, 5.0 μM) was 100% and the “Inhibition rate on human cancer cells” value ([5]; A549, 1.0 μM) was 80%. For the same substance, the “Inhibition rate on human cancer cells” value ([5]; A549, 2.5 μM) was 100%, the “Inhibition rate on human cancer cells” value ([5]; A549, 5.0 μM) was 100% and the “Inhibition rate on human cancer cells” value ([6]; J82, 1.0 μM) was 80%. The “Inhibition rate on human cancer cells” value ([6]; J82, 2.5 μM) was 100%, the “Inhibition rate on human cancer cells” value ([6]; J82, 5.0 μM) was 100% and the “Inhibition rate on human cancer cells” value ([7]; H520, 0.25 μM) was 70%. The “Inhibition rate on human cancer cells” value ([7]; H520, 0.5 μM) was 80%, the “Inhibition rate on human cancer cells” value ([7]; H520, 1.0 μM) was 90% and the “Inhibition rate on human cancer cells” value ([7]; H520, 2.5 μM) was 100%. For the same substance, the “Inhibition rate on human cancer cells” value ([7]; H520, 5.0 μM) was 100%, the “Inhibition rate on human cancer cells” value ([8]; PC-3, 1.0 μM) was 100% and the “Inhibition rate on human cancer cells” value ([8]; PC-3, 2.5 μM) was 100%. For the same substance, the “Inhibition rate on human cancer cells” value ([8]; PC-3, 5.0 μM) was 100%, the “Inhibition rate on human cancer cells” value ([9]; T24, 0.25 μM) was 100% and the “Inhibition rate on human cancer cells” value ([9]; T24, 0.5 μM) was 100%. The “Inhibition rate on human cancer cells” value ([9]; T24, 1.0 μM) was 100%, the “Inhibition rate on human cancer cells” value ([9]; T24, 2.5 μM) was 100% and the “Inhibition rate on human cancer cells” value ([9]; T24, 5.0 μM) was 100%.
